Laboratory results: ChEMBL document CHEMBL1933028, “Discovery of cyclic amine-substituted benzoic acids as PPARα agonists” (Bioorg Med Chem Lett, 2012)

The molecules below were run against T1, Peroxisome proliferator-activated receptor alpha (Homo sapiens, UniProt Q07869) (assay: Transactivation of human PPARalpha expressed in CHO-K1 cells).
T1 sequence (Q07869 whole entry): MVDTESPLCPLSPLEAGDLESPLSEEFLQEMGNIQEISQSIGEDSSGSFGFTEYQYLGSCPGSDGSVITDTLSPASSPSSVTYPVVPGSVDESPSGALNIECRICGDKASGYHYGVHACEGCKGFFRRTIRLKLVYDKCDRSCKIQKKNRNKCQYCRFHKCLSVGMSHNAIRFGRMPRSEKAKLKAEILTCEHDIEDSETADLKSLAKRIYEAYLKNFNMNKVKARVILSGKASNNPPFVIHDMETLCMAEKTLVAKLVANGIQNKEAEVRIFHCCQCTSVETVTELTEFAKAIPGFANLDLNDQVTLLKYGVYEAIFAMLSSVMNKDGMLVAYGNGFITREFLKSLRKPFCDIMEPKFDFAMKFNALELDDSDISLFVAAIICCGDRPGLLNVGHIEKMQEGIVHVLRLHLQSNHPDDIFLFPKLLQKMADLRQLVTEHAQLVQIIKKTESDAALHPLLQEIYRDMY
Assay type: cell-based; call rule not given here

| Structure (SMILES) | EC50 |
| --- | --- |
| COc1ccc(-c2cccc(C(=O)O)c2)cc1CNC(=O)c1ccc(Oc2ccccc2)cc1 | 700 nM |
| O=C(O)c1cccc(N2CCCC(CNC(=O)c3ccc(Oc4ccc(F)cc4)cc3)C2)c1 (centres undefined) | 4400 nM |
| Cc1nc(-c2ccc(Cl)cc2)sc1C(=O)NCC1CCCN(c2cccc(C(=O)O)c2)C1 (centres undefined) | 760 nM |
| Cc1nc(-c2ccc(Cl)cc2)sc1C(=O)NCC1CCN(c2cccc(C(=O)O)c2)CC1 | > 3500 nM |
| Cc1nc(-c2ccc(Cl)cc2)sc1C(=O)NCC1CCN(c2cccc(C(=O)O)c2)C1 (centres undefined) | 850 nM |
| Cc1nc(-c2ccc(Cl)cc2)sc1C(=O)NCC1CCCCN(c2cccc(C(=O)O)c2)C1 (centres undefined) | 700 nM |
| Cc1nc(-c2ccc(Cl)cc2)sc1C(=O)NCC1CN(c2cccc(C(=O)O)c2)CCO1 (centres undefined) | 810 nM |
| Cc1nc(-c2ccc(Cl)cc2)sc1CNC(=O)C1CCCN(c2cccc(C(=O)O)c2)C1 (centres undefined) | > 14000 nM |
| Cc1nc(-c2ccc(Cl)cc2)sc1CC(=O)NC1CCCN(c2cccc(C(=O)O)c2)C1 (centres undefined) | > 12000 nM |
| Cc1nc(-c2ccc(Cl)cc2)sc1C(=O)NC1CCCN(c2cccc(C(=O)O)c2)C1 (centres undefined) | 5 nM |
| Cc1nc(-c2ccc(Cl)cc2)sc1NC(=O)C1CCCN(c2cccc(C(=O)O)c2)C1 (centres undefined) | 280 nM |
| Cc1nc(-c2ccc(Cl)cc2)sc1C(=O)N(C)C1CCCN(c2cccc(C(=O)O)c2)C1 (centres undefined) | 3400 nM |
| Cc1nc(-c2ccc(Cl)cc2)sc1CNC1CCCN(c2cccc(C(=O)O)c2)C1 (centres undefined) | 2400 nM |
| Cc1nc(-c2ccc(Cl)cc2)sc1COC1CCCN(c2cccc(C(=O)O)c2)C1 (centres undefined) | 250 nM |
| Cc1nc(-c2ccc(Cl)cc2)sc1/C=C/C1CCCN(c2cccc(C(=O)O)c2)C1 (centres undefined) | 120 nM |
| Cc1nc(-c2ccc(Cl)cc2)sc1CCC1CCCN(c2cccc(C(=O)O)c2)C1 (centres undefined) | 810 nM |
| Cc1nc(-c2ccc(Cl)cc2)sc1C(=O)NC1CCCN(c2ccccc2C(=O)O)C1 (centres undefined) | > 6000 nM |
| Cc1nc(-c2ccc(Cl)cc2)sc1C(=O)NC1CCCN(c2ccc(C(=O)O)cc2)C1 (centres undefined) | 1500 nM |
| Cc1nc(-c2ccc(Cl)cc2)sc1C(=O)N[C@@H]1CCCN(c2cccc(C(=O)O)c2)C1 | 1200 nM |
| Cc1sc(-c2ccc(Cl)cc2)nc1C(=O)N[C@H]1CCCN(c2cccc(C(=O)O)c2)C1 | > 3400 nM |
| Cc1nc(-c2ccc(Cl)cc2)oc1C(=O)N[C@H]1CCCN(c2cccc(C(=O)O)c2)C1 | 1500 nM |
| Cc1nc(-c2ccccc2)sc1C(=O)N[C@H]1CCCN(c2cccc(C(=O)O)c2)C1 | 72 nM |
| Cc1nc(-c2cccc(Cl)c2)sc1C(=O)N[C@H]1CCCN(c2cccc(C(=O)O)c2)C1 | 26 nM |
| Cc1nc(-c2ccccc2Cl)sc1C(=O)N[C@H]1CCCN(c2cccc(C(=O)O)c2)C1 | 53 nM |
| Cc1nc(-c2ccc(F)cc2)sc1C(=O)N[C@H]1CCCN(c2cccc(C(=O)O)c2)C1 | 21 nM |
| Cc1ccc(-c2nc(C)c(C(=O)N[C@H]3CCCN(c4cccc(C(=O)O)c4)C3)s2)cc1 | 6 nM |
| COc1ccc(-c2nc(C)c(C(=O)N[C@H]3CCCN(c4cccc(C(=O)O)c4)C3)s2)cc1 | 23 nM |
| Cc1nc(-c2ccc([N+](=O)[O-])cc2)sc1C(=O)N[C@H]1CCCN(c2cccc(C(=O)O)c2)C1 | 37 nM |
| CC[C@@H](Cc1ccc(OC)c(C(=O)NCc2ccc(Oc3ccc(F)cc3)cc2)c1)C(=O)O | 13 nM |

Each molecule was assayed against T2, Peroxisome proliferator-activated receptor gamma (Homo sapiens, UniProt P37231) (assay: Transactivation of human PPARgamma expressed in CHO-K1 cells).
T2 sequence (P37231 whole entry): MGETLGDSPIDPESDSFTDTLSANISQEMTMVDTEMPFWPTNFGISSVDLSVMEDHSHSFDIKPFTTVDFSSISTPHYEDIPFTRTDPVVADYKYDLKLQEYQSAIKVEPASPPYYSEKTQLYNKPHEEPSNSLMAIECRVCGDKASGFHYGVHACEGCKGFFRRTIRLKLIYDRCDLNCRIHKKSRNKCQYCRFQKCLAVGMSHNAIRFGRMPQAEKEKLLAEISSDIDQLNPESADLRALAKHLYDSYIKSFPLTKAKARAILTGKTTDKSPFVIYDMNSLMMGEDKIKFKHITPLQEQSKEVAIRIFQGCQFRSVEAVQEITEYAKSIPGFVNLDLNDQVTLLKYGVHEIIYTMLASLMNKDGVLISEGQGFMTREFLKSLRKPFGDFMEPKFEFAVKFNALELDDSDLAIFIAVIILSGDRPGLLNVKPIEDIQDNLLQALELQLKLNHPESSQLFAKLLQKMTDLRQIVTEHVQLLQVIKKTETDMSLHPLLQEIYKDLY
Assay type: cell-based

| Structure (SMILES) | EC50 |
| --- | --- |
| COc1ccc(-c2cccc(C(=O)O)c2)cc1CNC(=O)c1ccc(Oc2ccccc2)cc1 | 5900 nM |
| Cc1nc(-c2ccc(Cl)cc2)sc1C(=O)NCC1CCCN(c2cccc(C(=O)O)c2)C1 (centres undefined) | > 4900 nM |
| Cc1nc(-c2ccc(Cl)cc2)sc1C(=O)NCC1CCN(c2cccc(C(=O)O)c2)C1 (centres undefined) | > 10000 nM |
| Cc1nc(-c2ccc(Cl)cc2)sc1C(=O)NCC1CN(c2cccc(C(=O)O)c2)CCO1 (centres undefined) | > 15000 nM |
| Cc1nc(-c2ccc(Cl)cc2)sc1C(=O)NC1CCCN(c2cccc(C(=O)O)c2)C1 (centres undefined) | > 10000 nM |
| Cc1nc(-c2ccc(Cl)cc2)sc1NC(=O)C1CCCN(c2cccc(C(=O)O)c2)C1 (centres undefined) | > 13000 nM |
| Cc1nc(-c2ccc(Cl)cc2)sc1CNC1CCCN(c2cccc(C(=O)O)c2)C1 (centres undefined) | > 13000 nM |
| Cc1nc(-c2ccc(Cl)cc2)sc1COC1CCCN(c2cccc(C(=O)O)c2)C1 (centres undefined) | > 9700 nM |
| Cc1nc(-c2ccc(Cl)cc2)sc1/C=C/C1CCCN(c2cccc(C(=O)O)c2)C1 (centres undefined) | > 9800 nM |
| Cc1nc(-c2ccc(Cl)cc2)sc1CCC1CCCN(c2cccc(C(=O)O)c2)C1 (centres undefined) | > 6800 nM |
| Cc1nc(-c2ccc(Cl)cc2)sc1C(=O)N[C@@H]1CCCN(c2cccc(C(=O)O)c2)C1 | > 10000 nM |
| Cc1nc(-c2ccc(Cl)cc2)oc1C(=O)N[C@H]1CCCN(c2cccc(C(=O)O)c2)C1 | > 12000 nM |
| Cc1nc(-c2ccccc2)sc1C(=O)N[C@H]1CCCN(c2cccc(C(=O)O)c2)C1 | > 19000 nM |
| Cc1nc(-c2cccc(Cl)c2)sc1C(=O)N[C@H]1CCCN(c2cccc(C(=O)O)c2)C1 | > 5200 nM |
| Cc1nc(-c2ccccc2Cl)sc1C(=O)N[C@H]1CCCN(c2cccc(C(=O)O)c2)C1 | > 6800 nM |
| Cc1nc(-c2ccc(F)cc2)sc1C(=O)N[C@H]1CCCN(c2cccc(C(=O)O)c2)C1 | > 9800 nM |
| Cc1ccc(-c2nc(C)c(C(=O)N[C@H]3CCCN(c4cccc(C(=O)O)c4)C3)s2)cc1 | > 11000 nM |
| COc1ccc(-c2nc(C)c(C(=O)N[C@H]3CCCN(c4cccc(C(=O)O)c4)C3)s2)cc1 | > 11000 nM |
| Cc1nc(-c2ccc([N+](=O)[O-])cc2)sc1C(=O)N[C@H]1CCCN(c2cccc(C(=O)O)c2)C1 | > 13000 nM |
| CC[C@@H](Cc1ccc(OC)c(C(=O)NCc2ccc(Oc3ccc(F)cc3)cc2)c1)C(=O)O | 2500 nM |

What follows are molecules tested against T3, Peroxisome proliferator-activated receptor delta (Homo sapiens, UniProt Q03181) (assay: Transactivation of human PPARdelta expressed in CHO-K1 cells).
T3 sequence (Q03181 whole entry): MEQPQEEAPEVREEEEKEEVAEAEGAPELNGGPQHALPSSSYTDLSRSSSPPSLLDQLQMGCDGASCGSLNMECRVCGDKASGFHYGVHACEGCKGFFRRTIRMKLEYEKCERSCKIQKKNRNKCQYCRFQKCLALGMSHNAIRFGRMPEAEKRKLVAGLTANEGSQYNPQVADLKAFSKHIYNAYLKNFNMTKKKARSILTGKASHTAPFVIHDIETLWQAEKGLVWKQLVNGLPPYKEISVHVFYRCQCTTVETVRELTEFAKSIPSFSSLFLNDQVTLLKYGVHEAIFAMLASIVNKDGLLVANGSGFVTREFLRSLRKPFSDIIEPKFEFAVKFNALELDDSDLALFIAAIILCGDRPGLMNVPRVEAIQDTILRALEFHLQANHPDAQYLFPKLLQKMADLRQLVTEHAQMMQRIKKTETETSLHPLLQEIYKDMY
Assay type: cell-based

| Structure (SMILES) | EC50 |
| --- | --- |
| COc1ccc(-c2cccc(C(=O)O)c2)cc1CNC(=O)c1ccc(Oc2ccccc2)cc1 | 470 nM |
| Cc1nc(-c2ccc(Cl)cc2)sc1C(=O)NCC1CN(c2cccc(C(=O)O)c2)CCO1 (centres undefined) | > 17000 nM |
| Cc1nc(-c2ccc(Cl)cc2)sc1C(=O)NC1CCCN(c2cccc(C(=O)O)c2)C1 (centres undefined) | > 4200 nM |
| Cc1nc(-c2ccc(Cl)cc2)sc1CNC1CCCN(c2cccc(C(=O)O)c2)C1 (centres undefined) | > 13000 nM |
| Cc1nc(-c2ccc(Cl)cc2)sc1COC1CCCN(c2cccc(C(=O)O)c2)C1 (centres undefined) | > 6300 nM |
| Cc1nc(-c2ccc(Cl)cc2)sc1/C=C/C1CCCN(c2cccc(C(=O)O)c2)C1 (centres undefined) | > 8100 nM |
| Cc1nc(-c2ccc(Cl)cc2)sc1CCC1CCCN(c2cccc(C(=O)O)c2)C1 (centres undefined) | > 6800 nM |
| Cc1nc(-c2ccc(Cl)cc2)oc1C(=O)N[C@H]1CCCN(c2cccc(C(=O)O)c2)C1 | > 13000 nM |
| Cc1nc(-c2ccccc2)sc1C(=O)N[C@H]1CCCN(c2cccc(C(=O)O)c2)C1 | 7100 nM |
| Cc1nc(-c2cccc(Cl)c2)sc1C(=O)N[C@H]1CCCN(c2cccc(C(=O)O)c2)C1 | 2400 nM |
| Cc1nc(-c2ccccc2Cl)sc1C(=O)N[C@H]1CCCN(c2cccc(C(=O)O)c2)C1 | 1900 nM |
| Cc1nc(-c2ccc(F)cc2)sc1C(=O)N[C@H]1CCCN(c2cccc(C(=O)O)c2)C1 | 8800 nM |
| Cc1ccc(-c2nc(C)c(C(=O)N[C@H]3CCCN(c4cccc(C(=O)O)c4)C3)s2)cc1 | 3100 nM |
| COc1ccc(-c2nc(C)c(C(=O)N[C@H]3CCCN(c4cccc(C(=O)O)c4)C3)s2)cc1 | 1800 nM |
| Cc1nc(-c2ccc([N+](=O)[O-])cc2)sc1C(=O)N[C@H]1CCCN(c2cccc(C(=O)O)c2)C1 | > 11000 nM |
| CC[C@@H](Cc1ccc(OC)c(C(=O)NCc2ccc(Oc3ccc(F)cc3)cc2)c1)C(=O)O | 1920 nM |

What follows are molecules tested against T3, Peroxisome proliferator-activated receptor delta (assay: Transactivation of human PPARdelta expressed in CHO-K1 cells at 30 uM).
Assay type: cell-based

| Structure (SMILES) | EC50 |
| --- | --- |
| Cc1nc(-c2ccc(Cl)cc2)sc1C(=O)NCC1CCCN(c2cccc(C(=O)O)c2)C1 (centres undefined) | Not Active |
| Cc1nc(-c2ccc(Cl)cc2)sc1C(=O)NCC1CCN(c2cccc(C(=O)O)c2)C1 (centres undefined) | Not Active |
| Cc1nc(-c2ccc(Cl)cc2)sc1NC(=O)C1CCCN(c2cccc(C(=O)O)c2)C1 (centres undefined) | Not Active |
| Cc1nc(-c2ccc(Cl)cc2)sc1C(=O)N[C@@H]1CCCN(c2cccc(C(=O)O)c2)C1 | Not Active |
